Test results reported in patent US20130266629A1, “MEDICAL DEVICE HAVING A SURFACE COMPRISING ANTIMICROBIAL METAL” (DENTSPLY INTERNATIONAL INC., priority 2012, published 2013).

What was measured:
S. sanguinis = experiment: Minimum Inhibitory Concentration, fivefold dilution, no visual growth; type: cell-based; details: 24 hours at 35±2° C.
Method: (§1) Streak plates and characterization by gram-staining were done. MRSA and PA01 were grown on Tryptic Soy agar (TSA) plates and S. sanguinis on horse blood plates for up to 24 hours whereas P. gingivalis was grown between 4 and 5 days on Fastidious Anaerobic agar (FAA) plates. Fivefold dilution in at least five steps of gallium nitrate (Ga(NO3)3) or bismuth chloride (BiCl3) was done. Bismuth salt had to be suspended in DMSO in order to enable salt to dissolve in culture media.
(§2) Equal amounts of bacterial solution and antimicrobial salt (in fivefold dilution) were mixed and incubated at 35±2° C.: MRSA, PA01, and S. sanguinis for 24 hours and P. gingivalis for […]. After incubation, the concentration where no visual growth could be detected was documented.

P. gingivalis = experiment: as above; type: cell-based; details: 35±2° C.
Method: as §1, §2

PA01 = experiment: as above; type: cell-based, Pseudomonas aeruginosa; details: PA01, 24 hours at 35±2° C.
Method: as §1, §2

Francisella novicida = details: Olakanmi et al (2010); cited from earlier work
MRSA = type: cell-based, Staphylococcus aureus; details: 24 hours at 35±2° C.
Pseudomonas aeruginosa = details: Kaneko et al. (2007); cited from earlier work

Structure (SMILES) | Minimum Inhibitory Concentration (MIC) (S. sanguinis) | Minimum Inhibitory Concentration (MIC) (P. gingivalis) | Minimum Inhibitory Concentration (MIC) (PA01) | growth of Francisella novicida (Francisella novicida) | Minimum Inhibitory Concentration (MIC) (MRSA) | growth of Pseudomonas aeruginosa in batch cultures (Pseudomonas aeruginosa)
[Cl][Bi]([Cl])[Cl] [BiCl3, bismuth chloride] | 40 mg/L | 1000 mg/L | – | – | – | –
O=[N+]([O-])[O-].O=[N+]([O-])[O-].O=[N+]([O-])[O-].[Ga+3] [Ga(NO3)3, gallium nitrate] | 1000 mg/L | 40 mg/L | 200 mg/L | inhibited the growth | 1000 mg/L | inhibits growth
